{
  "source": "PubChem BioAssay (NCI)",
  "test_in_all_cases": "NCI tumour cell line growth inhibition, 48 h",
  "key": {"SNB-19 CNS": {"test_system": "SNB-19 CNS"}, "SK-MEL-5 melanoma": {"test_system": "SK-MEL-5 melanoma"}, "MDA-MB-231 breast": {"test_system": "MDA-MB-231 breast"}, "K-562 leukemia": {"test_system": "K-562 leukemia"}, "MCF7 breast": {"test_system": "MCF7 breast"}, "HOP-62 NSCLC": {"test_system": "HOP-62 NSCLC"}, "NCI-H522 lung": {"test_system": "NCI-H522 lung"}, "SW-620 colon": {"test_system": "SW-620 colon"}, "M14 melanoma": {"test_system": "M14 melanoma"}, "OVCAR-3 ovarian": {"test_system": "OVCAR-3 ovarian"}, "HS 578T breast": {"test_system": "HS 578T breast"}, "786-0 renal": {"test_system": "786-0 renal"}, "SK-MEL-28 melanoma": {"test_system": "SK-MEL-28 melanoma"}, "EKVX NSCLC": {"test_system": "EKVX NSCLC"}, "ACHN renal": {"test_system": "ACHN renal"}, "U251 CNS": {"test_system": "U251 CNS"}, "SF-539 CNS": {"test_system": "SF-539 CNS"}, "RXF 393 renal": {"test_system": "RXF 393 renal"}, "UO-31 renal": {"test_system": "UO-31 renal"}, "COLO 205 colon": {"test_system": "COLO 205 colon"}, "SK-OV-3 ovarian": {"test_system": "SK-OV-3 ovarian"}, "NCI/ADR-RES ovarian": {"test_system": "NCI/ADR-RES ovarian"}, "CCRF-CEM leukemia": {"test_system": "CCRF-CEM leukemia"}, "IGROV1 ovarian": {"test_system": "IGROV1 ovarian"}, "KM12 colon": {"test_system": "KM12 colon"}, "SK-MEL-2 melanoma": {"test_system": "SK-MEL-2 melanoma"}, "HT29 colon": {"test_system": "HT29 colon"}},
  "note": "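Values below derive from 48-hour exposures of cells grown in 96-well plates, with endpoints linearly interpolated between the two concentrations bracketing the appropriate inhibition level. GI50 = concentration required for 50% inhibition of growth. TGI denotes the concentration required for complete inhibition of growth.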",
  "data": [
    {"smiles": "CNC(=O)c1cc(Oc2ccc3c(c2)sc2nc(-c4ccc(N)cc4)cn23)ccn1", "values": [
      {"measurement": "TGI", "setting": "SNB-19 CNS", "result": "> 100000", "unit": "nM"},
      {"measurement": "GI50", "setting": "SK-MEL-5 melanoma", "result": 222, "unit": "nM"},
      {"measurement": "TGI", "setting": "SK-MEL-5 melanoma", "result": 11500, "unit": "nM"},
      {"measurement": "GI50", "setting": "MDA-MB-231 breast", "result": 726, "unit": "nM"},
      {"measurement": "TGI", "setting": "MDA-MB-231 breast", "result": "> 100000", "unit": "nM"},
      {"measurement": "GI50", "setting": "K-562 leukemia", "result": 91.1, "unit": "nM"},
      {"measurement": "TGI", "setting": "K-562 leukemia", "result": "> 100000", "unit": "nM"},
      {"measurement": "GI50", "setting": "MCF7 breast", "result": 128, "unit": "nM"},
      {"measurement": "TGI", "setting": "MCF7 breast", "result": "> 100000", "unit": "nM"},
      {"measurement": "GI50", "setting": "HOP-62 NSCLC", "result": 346, "unit": "nM"},
      {"measurement": "TGI", "setting": "HOP-62 NSCLC", "result": "> 100000", "unit": "nM"},
      {"measurement": "GI50", "setting": "NCI-H522 lung", "result": 165, "unit": "nM"},
      {"measurement": "TGI", "setting": "NCI-H522 lung", "result": 573, "unit": "nM"},
      {"measurement": "GI50", "setting": "SW-620 colon", "result": 153, "unit": "nM"},
      {"measurement": "TGI", "setting": "SW-620 colon", "result": "> 100000", "unit": "nM"},
      {"measurement": "GI50", "setting": "M14 melanoma", "result": 162, "unit": "nM"},
      {"measurement": "TGI", "setting": "M14 melanoma", "result": "> 100000", "unit": "nM"},
      {"measurement": "GI50", "setting": "OVCAR-3 ovarian", "result": 198, "unit": "nM"},
      {"measurement": "TGI", "setting": "OVCAR-3 ovarian", "result": 670, "unit": "nM"},
      {"measurement": "GI50", "setting": "HS 578T breast", "result": 224, "unit": "nM"},
      {"measurement": "TGI", "setting": "HS 578T breast", "result": "> 100000", "unit": "nM"},
      {"measurement": "GI50", "setting": "786-0 renal", "result": 433, "unit": "nM"},
      {"measurement": "TGI", "setting": "786-0 renal", "result": "> 100000", "unit": "nM"},
      {"measurement": "GI50", "setting": "SK-MEL-28 melanoma", "result": 4990, "unit": "nM"},
      {"measurement": "TGI", "setting": "SK-MEL-28 melanoma", "result": "> 100000", "unit": "nM"},
      {"measurement": "GI50", "setting": "EKVX NSCLC", "result": 458, "unit": "nM"},
      {"measurement": "TGI", "setting": "EKVX NSCLC", "result": "> 100000", "unit": "nM"},
      {"measurement": "GI50", "setting": "ACHN renal", "result": 750, "unit": "nM"},
      {"measurement": "TGI", "setting": "ACHN renal", "result": "> 100000", "unit": "nM"},
      {"measurement": "GI50", "setting": "U251 CNS", "result": 194, "unit": "nM"},
      {"measurement": "TGI", "setting": "U251 CNS", "result": "> 100000", "unit": "nM"},
      {"measurement": "GI50", "setting": "SF-539 CNS", "result": 324, "unit": "nM"},
      {"measurement": "TGI", "setting": "SF-539 CNS", "result": "> 100000", "unit": "nM"},
      {"measurement": "GI50", "setting": "RXF 393 renal", "result": 297, "unit": "nM"},
      {"measurement": "TGI", "setting": "RXF 393 renal", "result": "> 100000", "unit": "nM"},
      {"measurement": "GI50", "setting": "UO-31 renal", "result": 467, "unit": "nM"},
      {"measurement": "TGI", "setting": "UO-31 renal", "result": "> 100000", "unit": "nM"},
      {"measurement": "GI50", "setting": "COLO 205 colon", "result": 305, "unit": "nM"},
      {"measurement": "TGI", "setting": "COLO 205 colon", "result": 27200, "unit": "nM"},
      {"measurement": "GI50", "setting": "SK-OV-3 ovarian", "result": 470, "unit": "nM"},
      {"measurement": "TGI", "setting": "SK-OV-3 ovarian", "result": "> 100000", "unit": "nM"},
      {"measurement": "GI50", "setting": "NCI/ADR-RES ovarian", "result": 211, "unit": "nM"},
      {"measurement": "TGI", "setting": "NCI/ADR-RES ovarian", "result": "> 100000", "unit": "nM"},
      {"measurement": "GI50", "setting": "CCRF-CEM leukemia", "result": 200, "unit": "nM"},
      {"measurement": "TGI", "setting": "CCRF-CEM leukemia", "result": "> 100000", "unit": "nM"},
      {"measurement": "GI50", "setting": "IGROV1 ovarian", "result": 609, "unit": "nM"},
      {"measurement": "TGI", "setting": "IGROV1 ovarian", "result": "> 100000", "unit": "nM"},
      {"measurement": "GI50", "setting": "KM12 colon", "result": 196, "unit": "nM"},
      {"measurement": "TGI", "setting": "KM12 colon", "result": "> 100000", "unit": "nM"},
      {"measurement": "GI50", "setting": "SK-MEL-2 melanoma", "result": 332, "unit": "nM"},
      {"measurement": "TGI", "setting": "SK-MEL-2 melanoma", "result": "> 100000", "unit": "nM"},
      {"measurement": "GI50", "setting": "HT29 colon", "result": 197, "unit": "nM"},
      {"measurement": "TGI", "setting": "HT29 colon", "result": 802, "unit": "nM"}
    ]}
  ]
}
